Assay results from ChEMBL document CHEMBL4507268 (2021).

Experiments:
[1] = biological target: Muscarinic acetylcholine receptor M4 (Homo sapiens) (UniProt P08173); conditions: Compound concentration 10.0 uM
Rattus norvegicus = species on record: Rattus norvegicus; conditions: Compound concentration 10.0 uM
ATR/ATRIP (Homo sapiens) = ATR/ATRIP (Homo sapiens) (UniProt Q13535+Q8WXE1); conditions: Compound concentration 1.0 uM
[2] = biological target: T1, Ephrin type-B receptor 1 (Homo sapiens) (UniProt P54762); conditions: Compound concentration 1.0 uM
T1 sequence (whole entry): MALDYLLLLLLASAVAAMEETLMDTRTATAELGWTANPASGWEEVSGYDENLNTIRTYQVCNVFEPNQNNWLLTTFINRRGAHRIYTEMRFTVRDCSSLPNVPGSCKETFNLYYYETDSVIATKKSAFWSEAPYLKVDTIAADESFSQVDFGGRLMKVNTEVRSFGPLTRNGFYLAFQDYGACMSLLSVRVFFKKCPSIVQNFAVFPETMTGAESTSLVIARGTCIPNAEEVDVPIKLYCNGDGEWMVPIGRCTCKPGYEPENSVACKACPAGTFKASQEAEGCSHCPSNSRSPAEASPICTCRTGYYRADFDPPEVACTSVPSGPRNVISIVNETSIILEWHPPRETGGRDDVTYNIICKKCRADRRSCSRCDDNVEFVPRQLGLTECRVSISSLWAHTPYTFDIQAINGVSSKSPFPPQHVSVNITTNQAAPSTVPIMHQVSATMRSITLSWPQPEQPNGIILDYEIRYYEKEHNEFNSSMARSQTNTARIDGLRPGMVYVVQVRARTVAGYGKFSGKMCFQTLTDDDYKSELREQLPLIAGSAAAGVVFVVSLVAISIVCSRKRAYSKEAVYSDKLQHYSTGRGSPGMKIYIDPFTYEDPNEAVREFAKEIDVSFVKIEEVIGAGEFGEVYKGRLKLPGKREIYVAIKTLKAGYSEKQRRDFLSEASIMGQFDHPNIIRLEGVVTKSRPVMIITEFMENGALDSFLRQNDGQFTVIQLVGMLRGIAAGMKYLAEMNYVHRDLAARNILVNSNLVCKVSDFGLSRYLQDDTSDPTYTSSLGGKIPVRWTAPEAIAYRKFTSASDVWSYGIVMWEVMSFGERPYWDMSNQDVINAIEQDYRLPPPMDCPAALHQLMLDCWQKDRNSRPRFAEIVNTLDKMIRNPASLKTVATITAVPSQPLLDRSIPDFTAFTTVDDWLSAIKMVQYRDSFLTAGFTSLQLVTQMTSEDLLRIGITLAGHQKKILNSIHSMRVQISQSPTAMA

[3] = biological target: T2, Protein kinase C epsilon type (Homo sapiens) (UniProt Q02156); conditions: Compound concentration 1.0 uM
T2 sequence (whole entry): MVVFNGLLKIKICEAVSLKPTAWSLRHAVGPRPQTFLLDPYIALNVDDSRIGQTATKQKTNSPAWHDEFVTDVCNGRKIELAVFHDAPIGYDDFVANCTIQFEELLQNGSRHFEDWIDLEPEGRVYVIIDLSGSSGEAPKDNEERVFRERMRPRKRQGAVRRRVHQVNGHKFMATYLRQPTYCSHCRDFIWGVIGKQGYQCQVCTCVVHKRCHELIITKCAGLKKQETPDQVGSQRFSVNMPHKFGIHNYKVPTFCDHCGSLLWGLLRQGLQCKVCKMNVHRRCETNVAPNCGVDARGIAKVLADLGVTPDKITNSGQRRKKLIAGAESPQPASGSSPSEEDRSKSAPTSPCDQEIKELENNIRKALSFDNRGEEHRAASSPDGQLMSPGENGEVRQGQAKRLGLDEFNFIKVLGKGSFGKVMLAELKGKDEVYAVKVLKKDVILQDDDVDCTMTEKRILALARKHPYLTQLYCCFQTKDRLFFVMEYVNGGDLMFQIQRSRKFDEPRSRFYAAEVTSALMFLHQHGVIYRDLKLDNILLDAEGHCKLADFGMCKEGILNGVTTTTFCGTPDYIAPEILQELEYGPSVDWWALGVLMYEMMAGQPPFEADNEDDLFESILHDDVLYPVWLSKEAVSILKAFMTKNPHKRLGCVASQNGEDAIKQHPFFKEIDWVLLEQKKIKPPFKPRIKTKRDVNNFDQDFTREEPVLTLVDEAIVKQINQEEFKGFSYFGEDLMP

[4] = biological target: T3, Serine/threonine-protein kinase Nek3 (Homo sapiens) (UniProt P51956); conditions: Compound concentration 1.0 uM
T3 sequence (whole entry): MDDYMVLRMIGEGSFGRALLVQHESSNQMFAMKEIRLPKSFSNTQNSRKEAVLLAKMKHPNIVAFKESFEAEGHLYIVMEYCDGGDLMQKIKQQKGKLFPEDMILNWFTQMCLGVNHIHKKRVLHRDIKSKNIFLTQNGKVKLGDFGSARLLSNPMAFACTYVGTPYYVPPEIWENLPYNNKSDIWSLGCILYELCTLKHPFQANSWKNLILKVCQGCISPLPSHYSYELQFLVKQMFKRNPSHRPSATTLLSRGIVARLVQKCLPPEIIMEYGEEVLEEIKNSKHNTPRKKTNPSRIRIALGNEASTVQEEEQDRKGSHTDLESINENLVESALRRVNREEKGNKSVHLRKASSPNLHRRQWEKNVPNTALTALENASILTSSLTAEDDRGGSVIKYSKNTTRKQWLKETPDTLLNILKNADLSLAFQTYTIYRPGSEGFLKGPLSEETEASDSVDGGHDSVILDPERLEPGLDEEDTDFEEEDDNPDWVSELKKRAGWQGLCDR

[5] = biological target: T4, Serine/threonine-protein kinase NLK (Homo sapiens) (UniProt Q9UBE8); conditions: Compound concentration 1.0 uM
T4 sequence (whole entry): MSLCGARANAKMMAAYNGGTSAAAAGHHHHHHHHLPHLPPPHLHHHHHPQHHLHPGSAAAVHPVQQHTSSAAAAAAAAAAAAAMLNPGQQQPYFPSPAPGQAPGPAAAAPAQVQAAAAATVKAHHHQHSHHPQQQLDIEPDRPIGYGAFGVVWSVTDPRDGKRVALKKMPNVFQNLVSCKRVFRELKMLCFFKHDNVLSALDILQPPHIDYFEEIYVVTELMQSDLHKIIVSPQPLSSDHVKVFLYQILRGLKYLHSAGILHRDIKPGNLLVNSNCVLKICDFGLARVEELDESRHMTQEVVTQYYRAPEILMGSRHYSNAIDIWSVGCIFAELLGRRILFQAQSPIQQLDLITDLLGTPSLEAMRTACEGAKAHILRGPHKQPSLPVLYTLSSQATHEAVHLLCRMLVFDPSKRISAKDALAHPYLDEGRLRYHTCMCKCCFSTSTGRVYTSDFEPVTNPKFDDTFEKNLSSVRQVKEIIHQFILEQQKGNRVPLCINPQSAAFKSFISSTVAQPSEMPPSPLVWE

[6] = biological target: RAF proto-oncogene serine/threonine-protein kinase (Homo sapiens) (UniProt P04049); conditions: Compound concentration 1.0 uM
Chain of RAF proto-oncogene serine/threonine-protein kinase (Homo sapiens) (P04049 whole entry): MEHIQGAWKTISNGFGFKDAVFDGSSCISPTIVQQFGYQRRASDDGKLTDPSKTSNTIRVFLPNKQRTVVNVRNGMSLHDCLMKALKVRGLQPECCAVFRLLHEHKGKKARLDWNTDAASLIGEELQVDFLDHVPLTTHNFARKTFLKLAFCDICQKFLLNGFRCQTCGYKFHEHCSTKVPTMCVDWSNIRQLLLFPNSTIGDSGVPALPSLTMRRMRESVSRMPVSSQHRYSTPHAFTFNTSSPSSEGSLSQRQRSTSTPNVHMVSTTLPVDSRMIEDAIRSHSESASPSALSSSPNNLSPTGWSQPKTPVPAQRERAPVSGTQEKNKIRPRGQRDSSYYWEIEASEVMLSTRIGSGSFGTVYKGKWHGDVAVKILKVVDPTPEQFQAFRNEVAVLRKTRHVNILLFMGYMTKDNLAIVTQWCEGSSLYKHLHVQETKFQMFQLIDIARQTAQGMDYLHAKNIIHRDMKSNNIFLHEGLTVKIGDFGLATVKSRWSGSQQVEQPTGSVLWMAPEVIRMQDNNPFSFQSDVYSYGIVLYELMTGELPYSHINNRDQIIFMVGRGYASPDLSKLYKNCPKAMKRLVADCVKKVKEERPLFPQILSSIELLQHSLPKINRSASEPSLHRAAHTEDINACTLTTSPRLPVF

Chain of ATR/ATRIP (Homo sapiens) (Q13535 whole entry, looked up): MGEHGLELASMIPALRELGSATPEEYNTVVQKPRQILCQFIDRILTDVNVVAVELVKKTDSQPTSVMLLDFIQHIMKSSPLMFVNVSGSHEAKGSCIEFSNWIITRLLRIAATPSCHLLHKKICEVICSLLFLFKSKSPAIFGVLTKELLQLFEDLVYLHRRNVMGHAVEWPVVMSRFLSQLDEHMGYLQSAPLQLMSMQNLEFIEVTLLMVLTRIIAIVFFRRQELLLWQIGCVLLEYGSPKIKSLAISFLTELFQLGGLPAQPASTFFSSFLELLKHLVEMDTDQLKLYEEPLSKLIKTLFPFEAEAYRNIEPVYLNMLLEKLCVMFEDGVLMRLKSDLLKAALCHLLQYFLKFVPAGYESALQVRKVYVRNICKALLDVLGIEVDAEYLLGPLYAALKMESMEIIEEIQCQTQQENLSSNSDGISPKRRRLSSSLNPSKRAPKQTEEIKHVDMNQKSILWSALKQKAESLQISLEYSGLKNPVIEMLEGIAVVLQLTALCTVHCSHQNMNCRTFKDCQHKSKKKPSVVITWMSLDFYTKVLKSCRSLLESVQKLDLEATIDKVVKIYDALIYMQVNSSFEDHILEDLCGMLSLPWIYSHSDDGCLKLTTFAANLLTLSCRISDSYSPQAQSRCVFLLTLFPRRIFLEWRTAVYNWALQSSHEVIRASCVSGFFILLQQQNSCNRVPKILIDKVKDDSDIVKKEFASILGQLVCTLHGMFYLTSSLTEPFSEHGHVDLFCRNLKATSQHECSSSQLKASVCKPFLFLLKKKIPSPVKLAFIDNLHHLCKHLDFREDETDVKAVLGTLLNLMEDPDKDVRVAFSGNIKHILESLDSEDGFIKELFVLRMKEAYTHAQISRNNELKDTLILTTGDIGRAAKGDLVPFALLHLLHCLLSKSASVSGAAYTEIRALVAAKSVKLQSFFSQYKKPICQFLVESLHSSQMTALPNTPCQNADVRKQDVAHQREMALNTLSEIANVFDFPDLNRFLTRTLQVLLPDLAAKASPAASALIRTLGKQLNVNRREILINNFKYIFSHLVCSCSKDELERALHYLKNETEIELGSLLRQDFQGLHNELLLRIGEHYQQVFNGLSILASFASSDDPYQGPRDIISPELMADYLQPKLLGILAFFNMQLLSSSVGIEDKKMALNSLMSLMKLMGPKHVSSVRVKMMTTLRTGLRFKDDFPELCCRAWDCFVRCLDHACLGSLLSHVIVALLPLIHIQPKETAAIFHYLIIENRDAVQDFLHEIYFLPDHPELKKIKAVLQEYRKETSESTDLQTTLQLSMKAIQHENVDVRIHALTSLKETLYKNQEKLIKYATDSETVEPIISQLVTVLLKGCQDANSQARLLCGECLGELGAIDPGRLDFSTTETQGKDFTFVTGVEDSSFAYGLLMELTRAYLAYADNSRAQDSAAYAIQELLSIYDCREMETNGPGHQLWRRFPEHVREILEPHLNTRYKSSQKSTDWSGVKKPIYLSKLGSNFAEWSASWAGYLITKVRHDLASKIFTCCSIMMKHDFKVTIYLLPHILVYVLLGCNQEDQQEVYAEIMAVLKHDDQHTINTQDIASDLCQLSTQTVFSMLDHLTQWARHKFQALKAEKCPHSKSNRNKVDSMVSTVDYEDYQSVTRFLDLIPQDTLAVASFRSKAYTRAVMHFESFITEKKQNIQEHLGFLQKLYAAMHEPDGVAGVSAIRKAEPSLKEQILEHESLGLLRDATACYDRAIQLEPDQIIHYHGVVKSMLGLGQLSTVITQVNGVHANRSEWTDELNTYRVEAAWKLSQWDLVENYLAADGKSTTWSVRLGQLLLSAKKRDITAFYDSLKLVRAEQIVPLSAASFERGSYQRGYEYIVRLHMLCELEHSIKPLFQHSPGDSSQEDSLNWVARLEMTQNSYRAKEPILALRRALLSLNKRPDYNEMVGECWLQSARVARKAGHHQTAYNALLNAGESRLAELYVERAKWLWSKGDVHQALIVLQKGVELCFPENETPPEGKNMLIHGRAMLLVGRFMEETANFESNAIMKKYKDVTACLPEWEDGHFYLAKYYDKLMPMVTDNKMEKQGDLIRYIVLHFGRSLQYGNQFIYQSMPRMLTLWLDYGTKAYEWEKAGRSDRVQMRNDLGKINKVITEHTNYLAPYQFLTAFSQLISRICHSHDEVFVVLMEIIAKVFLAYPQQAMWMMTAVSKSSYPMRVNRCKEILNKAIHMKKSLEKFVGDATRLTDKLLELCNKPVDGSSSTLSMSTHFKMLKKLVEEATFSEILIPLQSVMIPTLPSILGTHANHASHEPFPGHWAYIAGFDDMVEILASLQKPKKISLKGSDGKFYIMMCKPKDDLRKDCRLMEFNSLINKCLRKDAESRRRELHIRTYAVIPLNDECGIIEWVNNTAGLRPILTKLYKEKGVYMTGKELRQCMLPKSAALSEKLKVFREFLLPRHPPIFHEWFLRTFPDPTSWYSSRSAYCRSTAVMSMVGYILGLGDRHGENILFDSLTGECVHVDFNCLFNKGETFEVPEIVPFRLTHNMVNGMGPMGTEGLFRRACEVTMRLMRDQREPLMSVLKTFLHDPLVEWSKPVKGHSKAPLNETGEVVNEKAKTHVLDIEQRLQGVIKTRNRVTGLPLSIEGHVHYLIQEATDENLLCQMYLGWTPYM
Chain of ATR/ATRIP (Homo sapiens) (Q8WXE1 whole entry, looked up): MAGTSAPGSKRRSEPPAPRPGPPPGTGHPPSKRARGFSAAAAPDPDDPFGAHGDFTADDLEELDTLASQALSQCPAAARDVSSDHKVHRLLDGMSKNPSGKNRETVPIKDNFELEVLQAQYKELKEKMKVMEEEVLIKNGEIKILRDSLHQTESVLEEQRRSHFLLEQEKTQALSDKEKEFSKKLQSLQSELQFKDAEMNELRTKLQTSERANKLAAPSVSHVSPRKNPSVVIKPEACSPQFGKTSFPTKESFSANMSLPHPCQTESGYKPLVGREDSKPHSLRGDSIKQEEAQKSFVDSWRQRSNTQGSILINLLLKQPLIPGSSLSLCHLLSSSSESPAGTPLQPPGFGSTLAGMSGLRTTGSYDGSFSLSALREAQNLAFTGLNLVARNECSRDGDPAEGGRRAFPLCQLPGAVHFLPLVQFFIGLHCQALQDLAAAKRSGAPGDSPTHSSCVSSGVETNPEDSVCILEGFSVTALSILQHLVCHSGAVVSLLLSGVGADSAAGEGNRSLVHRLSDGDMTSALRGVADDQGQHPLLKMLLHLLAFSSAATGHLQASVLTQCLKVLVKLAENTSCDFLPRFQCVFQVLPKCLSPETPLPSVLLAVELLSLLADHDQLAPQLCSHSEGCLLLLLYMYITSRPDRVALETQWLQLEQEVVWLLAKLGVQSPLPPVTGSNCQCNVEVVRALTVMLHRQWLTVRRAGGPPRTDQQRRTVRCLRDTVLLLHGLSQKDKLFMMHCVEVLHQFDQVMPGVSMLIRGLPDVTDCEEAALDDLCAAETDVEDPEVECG
Chain of Muscarinic acetylcholine receptor M4 (Homo sapiens) (P08173 whole entry): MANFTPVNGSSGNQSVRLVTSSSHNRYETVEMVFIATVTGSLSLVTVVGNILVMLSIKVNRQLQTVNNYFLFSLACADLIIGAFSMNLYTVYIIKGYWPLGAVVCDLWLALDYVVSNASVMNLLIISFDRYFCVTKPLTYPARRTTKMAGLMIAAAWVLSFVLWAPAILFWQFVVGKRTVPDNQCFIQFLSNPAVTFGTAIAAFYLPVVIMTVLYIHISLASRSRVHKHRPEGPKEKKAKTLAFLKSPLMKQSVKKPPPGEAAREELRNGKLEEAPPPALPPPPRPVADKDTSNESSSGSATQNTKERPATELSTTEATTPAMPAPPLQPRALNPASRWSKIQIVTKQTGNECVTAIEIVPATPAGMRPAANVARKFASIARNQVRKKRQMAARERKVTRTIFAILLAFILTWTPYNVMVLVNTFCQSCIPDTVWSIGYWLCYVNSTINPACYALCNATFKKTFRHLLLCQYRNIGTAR

Cc1nc(C2CCN(C(=O)c3ccc(OC(F)(F)F)cc3N)CC2)c2ncc(N3CCN(C)CC3)cc2n1 [BAY-693]
inactive: inhibition [1] -2.04% | inhibition (Rattus norvegicus) -4.32%

CN1CCN(c2cnc3c(C4CCN(C(=O)c5ccc(OC(F)(F)F)cc5N)CC4)ncnc3c2)CC1 [BAY-885]
inactive: % residual kinase activity (ATR/ATRIP (Homo sapiens)) 100% | % residual kinase activity [2] 105% | % residual kinase activity [3] 104% | % residual kinase activity [4] 111% | % residual kinase activity [5] 111% | % residual kinase activity [6] 107%
